Source: ChEMBL document CHEMBL3603835, “Discovery of dihydroisoquinolinone derivatives as novel inhibitors of the p53-MDM2 interaction with a distinct binding mode” (Bioorg Med Chem Lett, 2015)

What was measured:
[1] = Antiproliferative activity against p53 deficient human Saos2 cells; settings: SAOS-2
SJSA-1 = assay: Antiproliferative activity against p53 positive human SJSA1 cells
[2] = target: Tumour suppressor p53/oncoprotein Mdm2 (Homo sapiens, UniProt Q00987); assay: Inhibition of p53-MDM2 interaction (unknown origin) by TR-FRET assay; assay type: protein assay
Chain of Tumour suppressor p53/oncoprotein Mdm2 (P04637 whole entry): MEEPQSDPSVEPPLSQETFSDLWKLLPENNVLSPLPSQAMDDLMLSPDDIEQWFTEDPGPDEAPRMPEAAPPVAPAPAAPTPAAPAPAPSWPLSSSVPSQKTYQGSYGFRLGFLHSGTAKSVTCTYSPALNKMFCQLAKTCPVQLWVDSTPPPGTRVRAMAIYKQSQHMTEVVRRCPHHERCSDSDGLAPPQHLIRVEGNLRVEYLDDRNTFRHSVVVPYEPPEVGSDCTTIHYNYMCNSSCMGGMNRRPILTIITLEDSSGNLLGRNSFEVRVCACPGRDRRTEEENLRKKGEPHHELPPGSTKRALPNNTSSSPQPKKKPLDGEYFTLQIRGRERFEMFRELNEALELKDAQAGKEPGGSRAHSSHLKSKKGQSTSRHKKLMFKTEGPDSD
Chain of Tumour suppressor p53/oncoprotein Mdm2 (Q00987 whole entry): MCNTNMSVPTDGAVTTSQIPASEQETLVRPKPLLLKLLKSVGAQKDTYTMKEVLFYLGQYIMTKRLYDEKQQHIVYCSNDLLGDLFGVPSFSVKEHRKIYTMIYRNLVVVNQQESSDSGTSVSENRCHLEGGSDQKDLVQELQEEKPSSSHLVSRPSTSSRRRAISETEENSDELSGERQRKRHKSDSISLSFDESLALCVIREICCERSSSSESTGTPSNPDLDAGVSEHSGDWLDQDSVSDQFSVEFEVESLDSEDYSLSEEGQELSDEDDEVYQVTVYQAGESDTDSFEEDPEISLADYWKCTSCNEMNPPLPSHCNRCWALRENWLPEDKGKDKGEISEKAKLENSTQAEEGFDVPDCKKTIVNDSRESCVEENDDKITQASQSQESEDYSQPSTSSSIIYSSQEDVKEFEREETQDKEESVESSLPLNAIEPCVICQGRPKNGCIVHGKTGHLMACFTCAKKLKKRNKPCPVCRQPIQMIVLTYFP

Row | Compound | IC50 [1] [nM] | IC50 (SJSA-1) [nM] | IC50 [2] [nM]
1 | CC[C@@H](C)Oc1cc2c(cc1OC)CC(=O)N(c1ccc(N(C)Cc3ccncc3)cc1)[C@H]2c1ccc(Cl)cc1 | 12000 | 1200 | 
2 | CC[C@@H](C)Oc1cc2c(cc1OC)CC(=O)N(c1ccc(N(C)Cc3ccncc3)cc1)[C@@H]2c1ccc(Cl)cc1 | > 30000 | 29600 | 
3 | CC[C@@H](C)Oc1cc2c(cc1OC)CC(=O)N(c1ccc(N(C)Cc3cccc(F)c3)cc1)C2c1ccc(Cl)cc1 (some centres not stated) |  |  | 170
4 | CC[C@@H](C)Oc1cc2c(cc1OC)CC(=O)N(c1ccc(N(C)Cc3ccc(F)cc3)cc1)C2c1ccc(Cl)cc1 (some centres not stated) |  |  | 120
5 | CC[C@@H](C)Oc1cc2c(cc1OC)CC(=O)N(c1ccc(N(C)Cc3cccnc3)cc1)C2c1ccc(Cl)cc1 (some centres not stated) |  |  | 15
6 | CCOc1cc2c(cc1OCC)C(c1ccc(Cl)cc1)N(c1cccc(Cl)c1)C(=O)C2 (racemic) |  |  | 1400
7 | CCOc1cc2c(cc1OCC)C(c1ccc(Cl)cc1)N(c1ccc(OC)cc1)C(=O)C2 (racemic) | 19600 | 16600 | 540
8 | CCOc1cc2c(cc1OCC)C(c1ccc(Cl)cc1)N(c1ccc(Cl)cc1)C(=O)C2 (racemic) |  |  | 1000
